The record followed here is patent publication US7527935B2, “G-protein coupled receptor having eicosanoid as ligand and gene thereof” (Mitsubishi Tanabe Pharma Corporation, priority 2002, dated 2009).

In test [1] the target is T1, fusion protein of TG1019 protein and Giα1 (351Cys→Ile) (Homo sapiens, UniProt P63096+Q8TDS5, C351I/D111G/K206E/T295A).
T1 construct: made in house; host or cells: Sf9 insect cells (baculovirus, pVL1392), membrane fraction
Put plainly: [35S]GTPγS binding to membrane fraction containing TG1019-Giα1 (351Cys→Ile) fusion protein (ligand identification). It is filed as biochemical. Particulars: membrane fraction with TG1019-Giα1 (351Cys→Ile) fusion protein. From the text: (§1) As stated in Example 1, it is concluded that TG1019 protein is a G-protein coupled receptor. Therefore, using a membrane fraction containing fused protein of TG1019 and G-protein, a ligand is identified as follows, according to a method for detecting a ligand-dependent binding with GTPγS (guanosine 5′-O-(3-thiotriphosphate)) [Wenzel-Seifert, et al., Mol. Pharmacom., Vol. 58, pp. 954-966, 2000; Bahia, et al., Biochemistry, Vol. 37, pp. 11555-11562, 1998].
Sf9 cells were inoculated onto a 10 cm Petri dish coated with collagen to about 70% confluence, and added thereto were Virus solution III (100 μl) obtained above and 12 ml of a culture medium, and the mixture was cultured at 27° C. for 4 days. The obtained cells were washed with a cooled PBS (Phosphate buffered saline, pH 7.4), and suspended in 3.6 ml of a cooled solution buffer [20 mM Tris-HCl, pH 7.5, 1 mM EDTA, 0.2 mM phenylmethylsulfonyl fluoride, 10 μg/ml pepstatin, 10 μg/ml leupeptin, and 2 μg/ml aprotinin], and the cells were homogenized by means of a Teflon homogenizer. This cell homogenate was centrifuged (600×g, 10 minutes), and the resultant supernatant was further centrifuged (50,000×g, 20 minutes). The obtained sediments were suspended in 450 μl of a cooled reaction buffer [20 mM Tris-HCl, pH 7.5, 50 mM sodium chloride, 10 mM magnesium chloride] by means of a Teflon homogenizer, to prepare a membrane fraction containing a fusion protein.
The membrane fraction (450 μl) obtained above (2) was suspended in a reaction buffer (7.54 ml), and added thereto was GDP (10 mM, 10 μl). To 160 μl of this solution was added 20 μl of a test compound. After incubating the mixture at 30° C. for 10 minutes, 20 μl of [^35S] GTPγS (5 nM, 5 nCi/μl: available from Amersham Pharmacia Biotech) was added to start reaction. After incubating the mixture at 30° C. for one hour, the reaction was terminated by filtration through a glass filter (UniFilter-96GF/B, available from Packard). The filter was washed with 200 μl of a cooled reaction buffer for 3 times, and an amount of the [^35S] GTPγS (a binding amount to the membrane fraction) on the filter was measured by liquid scintillation counting. From the thus measured [^35S] GTPγS binding amount was subtracted a nonspecific binding amount (a binding amount measured in the presence of 10 μM GTPγS), to obtain a specific binding amount of [^35S ] GTPγS.

Test [2] has as its target T2, fusion protein of TG1019 protein and Giα1 (Homo sapiens, UniProt P63096+Q8TDS5, C351I/D111G/K206E/T295A).
T2 construct: made in house; host or cells: Sf9 insect cells (baculovirus, pVL1392), membrane fraction
The test is described as follows: Antagonist assay: inhibition of 5-oxo-ETE-stimulated G-protein activation ([35S]GTPγS binding) of TG1019-Giα1 fusion membrane fraction. It is filed as biochemical. Particulars: inhibition of G-protein activating effect of TG1019 by 5-oxo-ETE 0.1 μM. The method, then:
In the presence of 5-oxo-ETE (a ligand which acts as an agonist) and a test compound, a G-protein activating effect of TG1019 protein based on 5-oxo-ETE stimulation was detected, and an antagonistic effect of the test compound was examined.
Detection of the G-protein activation was carried out in a similar manner as in Example 3 (3) mentioned above, using a membrane fraction containing a fusion protein of TG1019 protein and Giα1 and a labeled GTPγS.
Specifically, a membrane fraction (450 μl) containing a fusion protein of TG1019 protein and Giα1 was suspended in a reaction solution (7.54 ml), and added thereto was 10 μl of GDP (10 mM). To 160 μl of this solution were added 5-oxo-ETE (the final concentration of 0.1 μM) and a test compound at various concentrations (0M, 10^−7M -10^−5M), and the mixture was incubated at 30° C. for 10 minutes (a total amount of 5-oxo-ETE and the test compound: 20 μl).
Added thereto was 20 μl of [^35S] GTPγS to start a reaction. After incubation at 30° C. for one hour, the reaction was terminated by filtration through a glass filter.
An amount of the [^35S] GTPγS (a binding amount to the membrane fraction) on the filter was measured by liquid scintillation counting. From the thus measured [^35S] GTPγS amount was subtracted a nonspecific binding amount (a binding amount measured in the presence of 10 μM GTPγS), to obtain a specific binding amount.

Test [3] has as its system PC3 human prostate cancer cells. Put plainly: Apoptosis analysis (annexin V / PI flow cytometry) in PC3 cells. It is filed as cell-based. Particulars: 20 μl of 1 mM DHA in 2 ml, 2 hours. The method, then:
PC3 human prostate cancer cells, which had been cultured in RPMI1640 culture medium supplemented with 10% fetal bovine serum were dissociated by trypsin-EDTA solution (GibcoBRL), and suspended in RPMI1640 culture medium supplemented with 0.5% fetal bovine serum. The cells were plated onto a 6 cm Petri dish to 2×10^5 cells/dish, and cultured at 37° C. for 18 hours in a CO2 incubator. The supernatant was removed and 1980 μl of the same medium was added, and 20 μl of 1 mM DHA was further added thereto, and the mixture was cultured at 37° C. for 2 hours in a CO2 incubator.
In addition, as a test in the presence of 5-oxo-ETE, 1960 μl of RPMI1640 culture medium supplemented with 0.5% fetal bovine serum was added, and 20 μl of a 100 μM 5-oxo-ETE solution and 20 μl of a 1 mM DHA solution were further added thereto, and the cells were cultured in a similar manner as described above.
The adhered cells were removed by a cell scraper, transferred to a 1.5 ml tube, and centrifuged at 800×g for 5 minutes at 4° C., to collect suspended and adhered cells. […] The cells were suspended in 100 μl of a FITC-Annexin solution, and after 15 minutes of reaction under light-shielded condition at room temperature, 300 μl of Binding buffer was added thereto, and the FITC-Annexin bound to the cells and propidium iodide (PI) uptake into the cells were measured, by means of flow cytometer [Becton Dickinson].
A general note: A flow cytometer gives signals particle by particle.

The target in test [4] is T3, fusion protein of TG1019 protein and Gqα (Homo sapiens, UniProt Q8TDS5, D111G/K206E/T295A).
T3 construct: made in house; host or cells: Sf9 insect cells (baculovirus, pVL1392), membrane fraction
T3 sequence (Q8TDS5 with tags, fused parts or gaps D111G/K206E/T295A): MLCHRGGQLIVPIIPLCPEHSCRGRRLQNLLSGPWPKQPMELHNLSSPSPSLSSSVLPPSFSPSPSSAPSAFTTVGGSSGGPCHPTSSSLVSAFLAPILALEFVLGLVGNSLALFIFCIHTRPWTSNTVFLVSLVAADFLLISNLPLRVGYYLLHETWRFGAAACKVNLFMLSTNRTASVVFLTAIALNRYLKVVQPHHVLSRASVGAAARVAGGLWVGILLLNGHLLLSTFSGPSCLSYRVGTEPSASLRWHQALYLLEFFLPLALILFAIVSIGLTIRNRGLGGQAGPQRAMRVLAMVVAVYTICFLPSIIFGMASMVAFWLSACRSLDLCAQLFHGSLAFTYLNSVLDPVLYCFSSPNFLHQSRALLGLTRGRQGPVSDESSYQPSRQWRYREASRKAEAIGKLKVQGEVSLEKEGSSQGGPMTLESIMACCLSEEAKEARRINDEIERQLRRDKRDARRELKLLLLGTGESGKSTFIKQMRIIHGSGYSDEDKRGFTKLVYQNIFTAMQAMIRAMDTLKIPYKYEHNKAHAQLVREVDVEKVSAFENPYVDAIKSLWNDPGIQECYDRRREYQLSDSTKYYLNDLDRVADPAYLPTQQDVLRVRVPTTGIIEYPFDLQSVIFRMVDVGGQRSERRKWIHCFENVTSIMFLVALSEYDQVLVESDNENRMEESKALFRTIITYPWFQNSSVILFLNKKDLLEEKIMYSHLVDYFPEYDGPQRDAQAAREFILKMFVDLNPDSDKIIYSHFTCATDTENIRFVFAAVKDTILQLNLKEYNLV
The test is described as follows: [35S]GTPγS binding to membrane fraction containing TG1019-Gqα fusion protein. The settings on record: membrane fraction with TG1019-Gqα fusion protein; increase small compared to Giα. It is filed as biochemical.
Description: as §1
Sf9 cells were inoculated onto a 10 cm Petri dish coated with collagen to about 70% confluence, and added thereto were Virus solution III (100 μl) obtained above and 12 ml of a culture medium, and the mixture was cultured at 27° C. for 4 days. […]
The membrane fraction (450 μl) obtained above (2) was suspended in a reaction buffer (7.54 ml), and added thereto was GDP (10 mM, 10 μl). […] GTPγS (a binding amount to the membrane fraction) on the filter was measured by liquid scintillation counting. From the thus measured [^35S] GTPγS binding amount was subtracted a nonspecific binding amount (a binding amount measured in the presence of 10 μM GTPγS), to obtain a specific binding amount of [^35S ] […]
A general note: GTPγS is a poorly hydrolysed GTP analogue; its binding reports G protein activation.

Test [5] deals with TG1019 (5-oxo-ETE receptor). The test is described as follows: Intracellular calcium level in CHO cells stably expressing TG1019. It is filed as cell-based, human. Particulars: FuraII 340/380 nm ratio. As for the experimental part: (1) Preparation of cells stably expressing TG1019 Cells stably expressing TG1019 (the receptor protein of the present invention) and cells not expressing TG1019 were prepared by introducing to CHO cells the TG1019 protein expression vector prepared in Example 5 and the control vector, as described below.
The cells stably expressing TG1019 prepared in the above section (1) was incubated in DMEM/F12 medium supplemented with 10% fetal bovine serum at 37° C. in a CO2 incubator. To the cells which were 80 to 90% confluent, was added a cell dissociation buffer (Cell Dissociation Buffer Enzyme-free PBS-based, available from Invitrogen), and cells were dissociated by incubating at 37° C. for 5 minutes. […]
The cells after loading were centrifuged once with an assay buffer, to remove supernatant, and then, they were suspended in an assay buffer to have a concentration of 3.7 to 6.3×10^6 cells/ml. This cell suspension was portioned into a 96 well plate by 80 μl/well, and the plate was set in a fluorescence measuring device (FDSS6000, [Hamamatsu Photonics]), and the reaction was started by adding a solution containing 5-oxo-ETE or 5-HETE in a 5 fold concentration dissolved in an assay buffer, by 20 μl/well. The measurement was done by measuring fluorescence intensity at 510 nm, with excitation wavelength of 340 nm and 380 nm.

For orientation: IC50 means the midpoint of a concentration-inhibition curve. Higher therefore signals lower potency.

T1 sequence (Q8TDS5+P63096 fused Q8TDS5:D111G/Q8TDS5:K206E/Q8TDS5:T295A/P63096:C351I): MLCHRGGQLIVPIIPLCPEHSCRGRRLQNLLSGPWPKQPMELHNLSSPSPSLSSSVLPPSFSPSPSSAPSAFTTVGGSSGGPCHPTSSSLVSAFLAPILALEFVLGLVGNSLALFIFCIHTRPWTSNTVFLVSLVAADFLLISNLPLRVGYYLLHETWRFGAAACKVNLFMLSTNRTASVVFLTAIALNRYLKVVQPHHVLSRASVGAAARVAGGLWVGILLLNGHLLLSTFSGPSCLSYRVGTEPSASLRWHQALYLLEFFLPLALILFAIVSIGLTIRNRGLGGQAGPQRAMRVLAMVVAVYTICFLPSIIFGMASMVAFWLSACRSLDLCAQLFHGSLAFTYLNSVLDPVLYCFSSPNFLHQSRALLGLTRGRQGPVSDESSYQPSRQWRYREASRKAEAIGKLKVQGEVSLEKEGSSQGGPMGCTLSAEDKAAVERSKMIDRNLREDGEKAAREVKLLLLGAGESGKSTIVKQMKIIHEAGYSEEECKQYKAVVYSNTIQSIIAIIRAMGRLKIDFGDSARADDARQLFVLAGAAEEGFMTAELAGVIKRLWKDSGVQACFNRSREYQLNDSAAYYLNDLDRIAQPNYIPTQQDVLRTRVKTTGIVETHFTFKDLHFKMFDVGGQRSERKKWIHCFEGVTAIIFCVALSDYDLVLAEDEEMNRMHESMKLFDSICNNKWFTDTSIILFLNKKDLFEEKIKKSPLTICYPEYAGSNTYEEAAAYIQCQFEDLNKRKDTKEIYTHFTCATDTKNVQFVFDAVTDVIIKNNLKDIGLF
T2 sequence (Q8TDS5+P63096 fused Q8TDS5:D111G/Q8TDS5:K206E/Q8TDS5:T295A/P63096:C351I): as above

As for `CCCCC/C=C\C/C=C\C/C=C\C/C=C\CCCC(=O)O` [arachidonic acid], in test [1], the “specific binding amount of [35S]GTPγS” value is reported as “increased in a concentration-dependent manner”. Same read-out and setting: for `CCCCCCCC/C=C\C/C=C\C/C=C\CCCC(=O)O` [eicosa-5Z,8Z,11Z-trienoic acid] the value was “increased in a concentration-dependent manner”.

As to `CCCCCCCCC#CCC#CCC#CCCCC(=O)O` [ETI, 5,8,11-eicosatriynoic acid], the “specific binding amount of [35S]GTPγS” value in test [1] is on record as “increased in a concentration-dependent manner”.

`CC/C=C\C/C=C\C/C=C\C/C=C\C/C=C\CCCC(=O)O` [EPA, 5Z, 8Z, 11Z, 14Z, 17Z-eicosapentaenoic acid] had an IC50 in test [2] of 6 ± 1.2 µM.

Take `CC/C=C\C/C=C\C/C=C\C/C=C\C/C=C\C/C=C\CCC(=O)O` [DHA, 4Z, 7Z, 10Z, 13Z, 16Z, 19Z-docosahexaenoic acid]: the “induction of apoptosis (cells annexin positive, PI uptake negative)” value in test [3] was “induces apoptosis of PC3 cells”. In test [2], this compound showed an IC50 of 1.6 ± 0.2 µM. As to `CCCCC/C=C\C/C=C\C/C=C\CCCCCCC(=O)O` [Dihomo-γ-linolenic accid], the IC50 in test [2] is 3.7 ± 0.7 µM. `CCCCCCCC/C=C\C/C=C\C=C\C(O)CCCC(=O)O` (centres unmarked) [5-HETrE, 5-hydroxyeicosa-6E,8Z,11Z-trienoic acid]: in test [1], the “specific binding amount of [35S]GTPγS” value was “increased in a concentration-dependent manner”. As to `CC/C=C\C/C=C\C/C=C\CCCCCCCCCC(=O)O` [Eicosa-11Z, 14Z, 17Z-trienoic acid], the IC50 in test [2] stood at 5.1 ± 0.6 µM. Take `CCCCC/C=C\C/C=C\C/C=C\C=C\C(CCCC(=O)O)OO` (centres unmarked) [5-HPETE, 5-hydroperoxyeicosa-6E,8Z,11Z,14Z-tetraenoic acid]: the “specific binding amount of [35S]GTPγS” value in test [4] is given as “increased”; in test [1] it was “increased in a concentration-dependent manner”. Regarding `CCCCC/C=C\C/C=C\C/C=C\C=C\C(O)CCCC(=O)O` (centres unmarked) [5-HETE, 5-hydroxyeicosa-6E,8Z,11Z,14Z-tetraenoic acid], the “change in intracellular calcium level” value in test [5] was “increase in intracellular calcium level”. Moreover, in test [1], the “specific binding amount of [35S]GTPγS” value is “increased in a concentration-dependent manner”. As to `CCCCCCCCCCC/C=C\C/C=C\CCCC(=O)O` [eicosa-5Z,8Z-dienoic acid], the “specific binding amount of [35S]GTPγS” value in test [1] was “increased in a concentration-dependent manner”.
